Results published in article PMC9415638, “Discovery of novel thiazolyl-pyrazolines as dual EGFR and VEGFR-2 inhibitors endowed with in vitro antitumor activity towards non-small lung cancer” (Journal of Enzyme Inhibition and Medicinal Chemistry, 2022).
Read-outs that look alike come from different tables or passages of the source.

What was measured:
[1] = target: EGFR (Homo sapiens, UniProt P00533); assay: EGFR kinase assay (PGT-coated 96-well plates); type: biochemical; conditions: read-out: IC50 (nM) ± SEM EGFR
EGFR, sequence (P00533 25-1210): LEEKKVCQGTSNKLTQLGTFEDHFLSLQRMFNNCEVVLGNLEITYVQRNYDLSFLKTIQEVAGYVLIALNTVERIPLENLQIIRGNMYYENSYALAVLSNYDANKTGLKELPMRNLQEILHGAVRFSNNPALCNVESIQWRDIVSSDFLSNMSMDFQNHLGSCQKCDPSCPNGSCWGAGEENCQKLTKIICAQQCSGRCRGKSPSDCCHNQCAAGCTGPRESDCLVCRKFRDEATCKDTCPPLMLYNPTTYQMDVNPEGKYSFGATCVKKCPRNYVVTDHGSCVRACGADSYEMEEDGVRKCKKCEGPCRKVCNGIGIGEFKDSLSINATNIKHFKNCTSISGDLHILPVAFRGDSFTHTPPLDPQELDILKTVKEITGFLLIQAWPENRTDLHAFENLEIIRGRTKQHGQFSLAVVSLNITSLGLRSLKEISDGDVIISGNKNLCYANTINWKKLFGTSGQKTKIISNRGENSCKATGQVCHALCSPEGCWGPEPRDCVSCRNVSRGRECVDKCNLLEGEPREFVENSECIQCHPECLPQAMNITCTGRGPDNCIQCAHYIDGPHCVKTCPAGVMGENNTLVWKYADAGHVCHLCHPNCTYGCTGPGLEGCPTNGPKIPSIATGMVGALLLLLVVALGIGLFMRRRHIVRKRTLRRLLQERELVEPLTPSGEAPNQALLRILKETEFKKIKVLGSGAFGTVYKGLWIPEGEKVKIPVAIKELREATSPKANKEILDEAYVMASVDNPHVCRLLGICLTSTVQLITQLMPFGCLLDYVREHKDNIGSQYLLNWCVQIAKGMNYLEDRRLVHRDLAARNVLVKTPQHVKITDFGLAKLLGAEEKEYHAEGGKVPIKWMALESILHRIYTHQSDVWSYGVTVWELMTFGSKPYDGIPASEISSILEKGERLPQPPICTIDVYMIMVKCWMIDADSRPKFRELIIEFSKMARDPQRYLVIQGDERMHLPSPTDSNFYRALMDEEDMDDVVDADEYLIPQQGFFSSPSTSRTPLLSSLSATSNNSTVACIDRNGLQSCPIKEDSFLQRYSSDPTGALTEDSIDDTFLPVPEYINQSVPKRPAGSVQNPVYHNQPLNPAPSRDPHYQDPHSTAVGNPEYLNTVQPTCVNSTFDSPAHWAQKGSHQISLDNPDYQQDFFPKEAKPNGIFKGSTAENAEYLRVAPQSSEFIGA
Protocol: (§1) The EGFR kinase assay was carried out in 96-well plates coated with PGT (poly l-glutamic acid l-tyrosine, 4:1, Sigma Aldrich, St. Louis, MO) as previously described. IC50 values were calculated using GraphPad Prism 5. Each experiment was carried out at least three times. The VEGFR-2 kinase assay was carried out in 96-well streptavidin coated plate using recombinant human VEGFR-2/KDR ELISA kit according to manufacturer’s instructions.

[2] = target: T1, recombinant human VEGFR-2/KDR (Homo sapiens, UniProt P35968); assay: VEGFR-2 kinase assay (VEGFR-2/KDR ELISA kit); type: biochemical; conditions: read-out: IC50 (nM) ± SEM VEGFR-2
T1 construct: purchased
T1 sequence (P35968 20-1356): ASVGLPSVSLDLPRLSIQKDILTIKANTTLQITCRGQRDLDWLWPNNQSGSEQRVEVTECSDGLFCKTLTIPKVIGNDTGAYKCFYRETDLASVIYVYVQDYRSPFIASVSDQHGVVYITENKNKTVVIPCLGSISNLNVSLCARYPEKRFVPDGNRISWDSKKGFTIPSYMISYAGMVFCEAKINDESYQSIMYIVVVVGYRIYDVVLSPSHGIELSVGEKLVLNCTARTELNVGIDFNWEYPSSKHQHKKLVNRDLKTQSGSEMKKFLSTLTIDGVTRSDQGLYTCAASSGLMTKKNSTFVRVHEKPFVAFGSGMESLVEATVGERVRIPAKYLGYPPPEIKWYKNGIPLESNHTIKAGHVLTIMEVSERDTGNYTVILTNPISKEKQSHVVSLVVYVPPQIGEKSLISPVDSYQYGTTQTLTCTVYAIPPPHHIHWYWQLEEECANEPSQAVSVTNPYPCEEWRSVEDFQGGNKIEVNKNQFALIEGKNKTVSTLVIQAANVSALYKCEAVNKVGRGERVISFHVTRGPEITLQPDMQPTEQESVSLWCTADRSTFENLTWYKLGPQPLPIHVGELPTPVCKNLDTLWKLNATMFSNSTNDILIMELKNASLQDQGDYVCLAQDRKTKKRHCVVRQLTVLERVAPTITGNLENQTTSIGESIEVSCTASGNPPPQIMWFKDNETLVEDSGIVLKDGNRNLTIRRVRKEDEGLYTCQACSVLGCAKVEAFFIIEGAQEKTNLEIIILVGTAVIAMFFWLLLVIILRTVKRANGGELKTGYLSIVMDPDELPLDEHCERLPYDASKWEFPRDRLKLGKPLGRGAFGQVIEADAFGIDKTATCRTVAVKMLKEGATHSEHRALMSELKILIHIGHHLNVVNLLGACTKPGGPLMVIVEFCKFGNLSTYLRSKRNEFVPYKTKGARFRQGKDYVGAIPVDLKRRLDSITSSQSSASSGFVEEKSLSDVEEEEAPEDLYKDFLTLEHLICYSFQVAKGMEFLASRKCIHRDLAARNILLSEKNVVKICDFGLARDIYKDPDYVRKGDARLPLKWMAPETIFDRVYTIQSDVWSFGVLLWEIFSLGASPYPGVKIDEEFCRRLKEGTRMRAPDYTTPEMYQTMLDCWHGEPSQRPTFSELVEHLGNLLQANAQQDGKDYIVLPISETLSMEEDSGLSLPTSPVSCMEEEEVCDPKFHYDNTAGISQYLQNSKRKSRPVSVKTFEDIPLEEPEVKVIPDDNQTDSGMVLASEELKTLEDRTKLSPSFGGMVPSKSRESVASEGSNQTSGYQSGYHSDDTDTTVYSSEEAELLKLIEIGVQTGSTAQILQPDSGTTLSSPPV
Protocol: as §1

[3] = system: BT-549 breast cancer cells; assay: Anti-proliferative MTT assay; type: cell-based; conditions: Homo sapiens, 24 h, read-out: % Growth inhibition ± SEM BT-549
Protocol: (§2) To evaluate the anti-proliferative activity of the synthesised thiazolyl-pyrazoline derivatives (7a–7d, 10a–10d, and 13a–13f), a preliminary in vitro one dose (10 µM) anticancer assay was performed. Nine cell lines derived from five tumour subpanels were examined; leukaemia (K562 and KG-1a), breast (MCF-7, BT-549 and HCC70), lung (A549 and H441), colon (HCT116) and liver (HepG2) cancer cell lines. The compounds were added at a single concentration (10 µM) and the cultures were incubated for 24 h, then the per cent growth inhibition (%GI) was calculated.
(§3) Human leukaemia (K562 and KG-1a), breast (MCF-7, BT-549 and HCC70), lung (A549, H441, NCI-H1650 and NCI-H1975), colon (HCT116), liver (HepG2) cancer cell lines and WI-38 human lung fibroblast cell line were obtained from the American Type Culture Collection (ATCC; Manassas, VA) and were cultured in their suitable media containing 10% foetal bovine serum (FBS; Sigma-Aldrich) in a humidified atmosphere with 5% CO2 at 37 °C. Gefitinib and vandetanib were purchased from Sigma-Aldrich. All chemicals used in this study were analytical or cell-culture grade.
(§4) Cytotoxicity was measured using the MTT assay. Human leukaemia (K562 and KG-1a), breast (MCF-7, BT-549 and HCC70), lung (A549, H441, NCI-H1650 and NCI-H1975), colon (HCT116), liver (HepG2) cancer cell lines and WI-38 human lung fibroblast cell line were plated at a density of 1 × 10^4 cells per well in 96-well plates overnight and then treated with the compounds. After 24 h treatment, 20 μL of MTT solution (2 mg/mL in phosphate-buffered saline [PBS]) was added to each well and the cells were cultured for another 4 h at 37 °C. The medium was aspirated and 150 μL DMSO was added to solubilise MTT formazan crystals. The plates were then shaken, and the optical density was determined at 570 nm using an ELISA plate reader (Model 550, Bio-Rad, Hercules, CA). At least three independent experiments were performed. The IC50 values were calculated using GraphPad Prism 5 (Version 5.01, GraphPad Software, San Diego, CA).

[4] = system: HCC70 breast cancer cells; assay: Anti-proliferative MTT assay; type: cell-based; conditions: Homo sapiens, 24 h, read-out: % Growth inhibition ± SEM HCC70
Protocol: as §2, §3, §4

[5] = system: HCT116 colon cancer cells; assay: Anti-proliferative MTT assay; type: cell-based; conditions: Homo sapiens, HCT-116, 24 h, read-out: % Growth inhibition ± SEM HCT116
Protocol: as §2, §3, §4

[6] = system: HepG2 liver cancer cells; assay: Anti-proliferative MTT assay; type: cell-based; conditions: Homo sapiens, 24 h, read-out: % Growth inhibition ± SEM HepG2
Protocol: as §2, §3, §4

[7] = system: K562 leukaemia cells; assay: Anti-proliferative MTT assay; type: cell-based; conditions: Homo sapiens, 24 h, read-out: % Growth inhibition ± SEM K562
Protocol: as §2, §3, §4

[8] = system: KG-1a leukaemia cells; assay: Anti-proliferative MTT assay; type: cell-based; conditions: Homo sapiens, 24 h, read-out: % Growth inhibition ± SEM KG-1a
Protocol: as §2, §3, §4

[9] = system: MCF-7 breast cancer cells; assay: Anti-proliferative MTT assay; type: cell-based; conditions: Homo sapiens, MCF7, 24 h, read-out: % Growth inhibition ± SEM MCF-7
Protocol: as §2, §3, §4

[10] = system: WI-38 human lung fibroblast cells; assay: MTT cytotoxicity assay on normal cells; type: cell-based; conditions: Homo sapiens, WI-38; normal lung fibroblasts, MTT, 24 h, n = 3; read-out: IC50 (µM) ± SEM WI-38
Protocol: All chemicals used in this study were analytical or cell-culture grade.
Cytotoxicity was measured using the MTT assay. […] The medium was aspirated and 150 μL DMSO was added to solubilise MTT formazan crystals. The plates were then shaken, and the optical density was determined at 570 nm using an ELISA plate reader (Model 550, Bio-Rad, Hercules, CA). At least three independent experiments were performed.

[11] = system: A549 lung cancer cells; assay: Anti-proliferative MTT assay; conditions: Homo sapiens, A549, 24 h; for inhibition at 10 µM: read-out: % Growth inhibition ± SEM A549; for IC50: read-out: IC50 (µM) ± SEM A549
[12] = system: H441 lung cancer cells; assay: Anti-proliferative MTT assay; conditions: for inhibition at 10 µM: read-out: % Growth inhibition ± SEM H441
[13] = Homo sapiens, NCI-H441, 24 h, read-out: IC50 (µM) ± SEM H441, MTT, 24 h, n = 3

SMILES | IC50 [1] [nM] | IC50 [2] [nM] | inhibition at 10 µM [3] [%] | inhibition at 10 µM [4] [%] | inhibition at 10 µM [5] [%] | inhibition at 10 µM [6] [%] | inhibition at 10 µM [7] [%] | inhibition at 10 µM [8] [%] | inhibition at 10 µM [9] [%] | IC50 [10] [µM] | melting point [°C] | inhibition at 10 µM [11] [%] | IC50 [11] [µM] | inhibition at 10 µM ([12]; Homo sapiens, NCI-H441, 24 h) [%] | IC50 [12, 13] [µM] | IC50 ([12]; read-out: IC50 (µM) ± SEM H441, MTT, 24 h, n = 3) [µM]
COc1ccc(C2CC(c3ccc(Cl)cc3Cl)=NN2c2nc(-c3ccccc3)cs2)cc1 (stereo not shown) [Compound 7a, 2-(3-(2,4-Dichlorophenyl)-5-(4-methoxyphenyl)-4,5-dihydro-1H-pyrazol-1-yl)-4-phenylthiazole] | 145 ± 2 | 125 ± 1.4 | 26.4 ± 3.6 | 27.3 ± 1 | 0.5 ± 0.1 | 0.5 | 14.2 ± 2.1 | 18.4 ± 1.3 | 0.07 | 88.2 ± 4.2 | 72 to 75 | 34.9 ± 4.3 | 22.5 ± 1.2 | 36.1 ± 2.1 | 38.4 ± 2.3 | 
COc1ccc(C2CC(c3ccc(Cl)cc3Cl)=NN2c2nc(-c3ccc(Cl)cc3)cs2)cc1 (stereo not shown) [Compound 7b, 4-(4-Chlorophenyl)-2-(3-(2,4-dichlorophenyl)-5-(4-methoxyphenyl)-4,5-dihydro-1H-pyrazol-1-yl)thiazole] | 114.2 ± 0.4 | 195 ± 4.6 | 5.2 ± 1 | 19.6 ± 0.3 | 18.8 ± 1.9 | 34.4 ± 1.4 | 21.5 ± 3 | 21.7 ± 4.6 | 25.9 ± 1.2 | 60.6 ± 3.1 | 140 to 141 | 45.2 ± 2.9 | 12 ± 0.4 | 35.2 ± 1.2 | 26.5 ± 1.1 | 
COc1ccc(C2CC(c3ccc(Cl)cc3Cl)=NN2c2nc(-c3ccccc3)cs2)cc1OC (stereo not shown) [Compound 7c, 2-(3-(2,4-Dichlorophenyl)-5-(3,4-dimethoxyphenyl)-4,5-dihydro-1H-pyrazol-1-yl)-4-phenylthiazole] | 511.2 ± 3.2 | 915.2 ± 4.3 | 3.1 ± 0.6 | 7.3 ± 1.2 | 4.9 ± 0.8 | 17.1 ± 2.7 | 5.2 ± 0.5 | 4.3 ± 0.7 | 9.2 ± 0.9 | > 100 | 120 to 122 | 8.9 ± 1.1 | > 100 | 16.2 ± 0.3 | > 100 | 
COc1ccc(C2CC(c3ccc(Cl)cc3Cl)=NN2c2nc(-c3ccc(Cl)cc3)cs2)cc1OC (stereo not shown) [Compound 7d, 4-(4-Chlorophenyl)-2-(3-(2,4-dichlorophenyl)-5-(3,4-dimethoxyphenyl)-4,5-dihydro-1H-pyrazol-1-yl)thiazole] | 132.9 ± 1.2 | 186 ± 2.3 | 18 ± 2.7 | 17.3 ± 0.6 | 0.7 | 5.1 ± 1 | 22 ± 1.6 | 25.1 ± 2 | 2.2 ± 0.6 | 40.1 ± 2.7 | 158 to 159 | 31.2 ± 1.4 | 20.2 ± 2 | 34.8 ± 2.4 | 29.1 ± 3.5 | 
COc1ccc(C2CC(c3ccc(Cl)cc3Cl)=NN2c2nc(C)c(C(C)=O)s2)cc1 (stereo not shown) [Compound 10a, 1-(2-(3-(2,4-Dichlorophenyl)-5-(4-methoxyphenyl)-4,5-dihydro-1H-pyrazol-1-yl)-4-methylthiazol-5-yl)ethan-1-one] | 274 ± 2.3 | 450 ± 8.3 | 9.4 ± 1 | 24.3 ± 2.5 | 19 ± 2.6 | 28 ± 4.3 | 12.2 ± 1.9 | 22.2 ± 1.6 | 13.6 ± 2.9 | > 100 | 205 to 207 | 32.3 ± 2.2 | 49.1 ± 3.2 | 6.3 ± 0.7 | > 100 | 
COc1ccc(C2CC(c3ccc(Cl)cc3Cl)=NN2c2nc(C)c(C(=O)Nc3ccccc3)s2)cc1 (stereo not shown) [Compound 10c, 2-(3-(2,4-Dichlorophenyl)-5-(4-methoxyphenyl)-4,5-dihydro-1H-pyrazol-1-yl)-4-methyl-N-phenylthiazole-5-carboxamide] | 130.7 ± 1.1 | 102 ± 4.3 | 22.3 ± 0.8 | 18.3 ± 1.6 | 7.9 ± 1.1 | 11.9 ± 1.1 | 11.2 ± 1 | 9.1 ± 1 | 2.5 ± 0.8 | > 100 | 195 to 197 | 28.9 ± 2 | 23.5 ± 1.3 | 8.7 ± 0.1 | 45.2 ± 2.3 | 
COc1ccc(C2CC(c3ccc(Cl)cc3Cl)=NN2c2nc(C)c(N=Nc3ccccc3)s2)cc1 (stereo not shown) [Compound 13a, 2-(3-(2,4-Dichlorophenyl)-5-(4-methoxyphenyl)-4,5-dihydro-1H-pyrazol-1-yl)-4-methyl-5-(phenyldiazenyl)thiazole] | 973 ± 2 | 1151 ± 4.3 | 10.3 ± 1.1 | 15.3 ± 1.4 | 19.5 ± 1.4 | 15.8 ± 2.2 | 2.2 ± 0.2 | 4.1 ± 0.9 | 17.8 ± 1 | > 100 | 168 to 170 | 11 ± 0.8 | > 100 | 22.2 ± 0.9 | > 100 | 94.4 ± 5.5
COc1ccc(C2CC(c3ccc(Cl)cc3Cl)=NN2c2nc(C)c(N=Nc3ccc(C)cc3)s2)cc1 (stereo not shown) [Compound 13b, 2-(3-(2,4-Dichlorophenyl)-5-(4-methoxyphenyl)-4,5-dihydro-1H-pyrazol-1-yl)-4-methyl-5-(p-tolyldiazenyl)thiazole] | 179 | 214 ± 4 | 5.1 ± 0.3 | 8.3 ± 0.9 | 0.8 ± 0.2 | 0.08 | 11 ± 0.6 | 7.1 ± 0.2 | 3.4 ± 0.5 | > 100 | 170 to 171 | 16.2 ± 1.3 | 59.1 ± 3.2 | 23.3 ± 2.4 | 24.2 ± 1.8 | 
COc1cc2c(Nc3ccc(Br)cc3F)ncnc2cc1OCC1CCN(C)CC1 [Vandetanib, reference compound] |  |  |  |  |  |  |  |  |  | 8.6 ± 0.4 |  |  | 3.4 ± 1 |  | 3.9 ± 0.8 | 
